Data from BindingDB's records for patent US20240335427 (Dana-Farber Cancer Institute, 2024).

Molecular target: Josephin-1 (Homo sapiens, UniProt Q15040)
From the text: Human JOSD1 protein was purified according to standard protocols.

IC50: 95 nM
Compound: N#CN1CC[C@@H](C(=O)Nc2nc3ccc(-c4ccc5[nH]ncc5c4)cc3s2)C1 [US20240335427, Compound 7]
